#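 Five concentrations, 48 hours, 96-well plates. GI50: concentration for 50% inhibition of growth. TGI marks complete inhibition of growth.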
# Assays:
# Assay in all cases: DTP human tumour cell line panel, 48 h
# 786-0 renal = tested on: 786-0 renal
# A498 renal = tested on: A498 renal
# A549 NSCLC = tested on: A549 NSCLC
# ACHN renal = tested on: ACHN renal
# BT-549 breast = tested on: BT-549 breast
# CAKI-1 renal = tested on: CAKI-1 renal
# CCRF-CEM leukemia = tested on: CCRF-CEM leukemia
# COLO 205 colon = tested on: COLO 205 colon
# DU-145 prostate = tested on: DU-145 prostate
# EKVX NSCLC = tested on: EKVX NSCLC
# HCC-2998 colon = tested on: HCC-2998 colon
# HCT-116 colon = tested on: HCT-116 colon
# HCT-15 colon = tested on: HCT-15 colon
# HL-60(TB) leukemia = tested on: HL-60(TB) leukemia
# HOP-62 NSCLC = tested on: HOP-62 NSCLC
# HOP-92 NSCLC = tested on: HOP-92 NSCLC
# HS 578T breast = tested on: HS 578T breast
# HT29 colon = tested on: HT29 colon
# IGROV1 ovarian = tested on: IGROV1 ovarian
# K-562 leukemia = tested on: K-562 leukemia
# KM12 colon = tested on: KM12 colon
# LOX IMVI melanoma = tested on: LOX IMVI melanoma
# M14 melanoma = tested on: M14 melanoma
# MALME-3M melanoma = tested on: MALME-3M melanoma
# MCF7 breast = tested on: MCF7 breast
# MDA-MB-231 breast = tested on: MDA-MB-231 breast
# MDA-MB-435 = tested on: MDA-MB-435
# MDA-N = tested on: MDA-N
# MOLT-4 leukemia = tested on: MOLT-4 leukemia
# NCI-H226 lung = tested on: NCI-H226 lung
# NCI-H23 lung = tested on: NCI-H23 lung
# NCI-H460 lung = tested on: NCI-H460 lung
# NCI-H522 lung = tested on: NCI-H522 lung
# NCI/ADR-RES ovarian = tested on: NCI/ADR-RES ovarian
# OVCAR-3 ovarian = tested on: OVCAR-3 ovarian
# OVCAR-4 ovarian = tested on: OVCAR-4 ovarian
# OVCAR-5 ovarian = tested on: OVCAR-5 ovarian
# OVCAR-8 ovarian = tested on: OVCAR-8 ovarian
# PC-3 prostate = tested on: PC-3 prostate
# RPMI-8226 leukemia = tested on: RPMI-8226 leukemia
# RXF 393 renal = tested on: RXF 393 renal
# SF-268 CNS = tested on: SF-268 CNS
# SF-295 CNS = tested on: SF-295 CNS
# SF-539 CNS = tested on: SF-539 CNS
# SK-MEL-2 melanoma = tested on: SK-MEL-2 melanoma
# SK-MEL-28 melanoma = tested on: SK-MEL-28 melanoma
# SK-MEL-5 melanoma = tested on: SK-MEL-5 melanoma
# SK-OV-3 ovarian = tested on: SK-OV-3 ovarian
# SN12C renal = tested on: SN12C renal
# SNB-19 CNS = tested on: SNB-19 CNS
# SNB-75 CNS = tested on: SNB-75 CNS
# SR leukemia = tested on: SR leukemia
# SW-620 colon = tested on: SW-620 colon
# T-47D breast = tested on: T-47D breast
# TK-10 renal = tested on: TK-10 renal
# U251 CNS = tested on: U251 CNS
# UACC-257 melanoma = tested on: UACC-257 melanoma
# UACC-62 melanoma = tested on: UACC-62 melanoma
# UO-31 renal = tested on: UO-31 renal
structure (smiles),measurement,setting,value
O=C1OC(OC/C(Br)=C(\Br)COC2OC(=O)C(Cl)=C2Cl)C(Cl)=C1Cl (stereo unspecified),TGI,786-0 renal,6.4 µM
same,TGI,A498 renal,34.1 µM
same,TGI,A549 NSCLC,34.3 µM
same,TGI,ACHN renal,13.7 µM
same,TGI,BT-549 breast,6.45 µM
same,TGI,CAKI-1 renal,5.54 µM
same,TGI,CCRF-CEM leukemia,2.34 µM
same,TGI,COLO 205 colon,4.11 µM
same,TGI,DU-145 prostate,28.5 µM
same,TGI,EKVX NSCLC,22.8 µM
same,TGI,HCC-2998 colon,33.7 µM
same,TGI,HCT-116 colon,4.56 µM
same,TGI,HCT-15 colon,10.1 µM
same,TGI,HL-60(TB) leukemia,1.43 µM
same,TGI,HOP-62 NSCLC,29.5 µM
same,TGI,HOP-92 NSCLC,10.7 µM
same,TGI,HS 578T breast,31.7 µM
same,TGI,HT29 colon,9.77 µM
same,TGI,IGROV1 ovarian,26.3 µM
same,TGI,K-562 leukemia,5.55 µM
same,TGI,KM12 colon,55.7 µM
same,TGI,LOX IMVI melanoma,8.29 µM
same,TGI,M14 melanoma,10.4 µM
same,TGI,MALME-3M melanoma,9.02 µM
same,TGI,MCF7 breast,25.4 µM
same,TGI,MDA-MB-231 breast,10.3 µM
same,TGI,MDA-MB-435,21.4 µM
same,TGI,MDA-N,14.3 µM
same,TGI,MOLT-4 leukemia,2.38 µM
same,TGI,NCI-H226 lung,40.8 µM
same,TGI,NCI-H23 lung,14 µM
same,TGI,NCI-H460 lung,33.6 µM
same,TGI,NCI-H522 lung,3.24 µM
same,TGI,NCI/ADR-RES ovarian,25.2 µM
same,TGI,OVCAR-3 ovarian,14.5 µM
same,TGI,OVCAR-4 ovarian,19.3 µM
same,TGI,OVCAR-5 ovarian,30 µM
same,TGI,OVCAR-8 ovarian,13.3 µM
same,TGI,PC-3 prostate,27.8 µM
same,TGI,RPMI-8226 leukemia,3.94 µM
same,TGI,RXF 393 renal,6.1 µM
same,TGI,SF-268 CNS,26.8 µM
same,TGI,SF-295 CNS,34.7 µM
same,TGI,SF-539 CNS,21.9 µM
same,TGI,SK-MEL-2 melanoma,35.9 µM
same,TGI,SK-MEL-28 melanoma,22.1 µM
same,TGI,SK-MEL-5 melanoma,22.3 µM
same,TGI,SK-OV-3 ovarian,43 µM
same,TGI,SN12C renal,16.6 µM
same,TGI,SNB-19 CNS,34.3 µM
same,TGI,SNB-75 CNS,39.4 µM
same,TGI,SR leukemia,2.16 µM
same,TGI,SW-620 colon,9.9 µM
same,TGI,T-47D breast,34.6 µM
same,TGI,TK-10 renal,15.2 µM
same,TGI,U251 CNS,19 µM
same,TGI,UACC-257 melanoma,23.9 µM
same,TGI,UACC-62 melanoma,16.9 µM
same,TGI,UO-31 renal,8.12 µM
CCOP(=O)(OCC)/C(=C/n1c(=S)[nH]c2ccccc21)C(=O)OC,TGI,786-0 renal,> 100 µM
same,TGI,A498 renal,> 100 µM
same,TGI,A549 NSCLC,> 100 µM
same,TGI,ACHN renal,> 100 µM
same,TGI,BT-549 breast,> 100 µM
same,TGI,CAKI-1 renal,> 100 µM
same,TGI,CCRF-CEM leukemia,> 100 µM
same,TGI,COLO 205 colon,> 100 µM
same,TGI,DU-145 prostate,> 100 µM
same,TGI,EKVX NSCLC,> 100 µM
same,TGI,HCC-2998 colon,> 100 µM
same,TGI,HCT-116 colon,> 100 µM
same,TGI,HCT-15 colon,> 52.2 µM
same,TGI,HL-60(TB) leukemia,> 100 µM
same,TGI,HOP-62 NSCLC,> 100 µM
same,GI50,HOP-92 NSCLC,> 100 µM
same,TGI,HOP-92 NSCLC,> 100 µM
same,TGI,HS 578T breast,> 100 µM
same,TGI,HT29 colon,> 100 µM
same,TGI,IGROV1 ovarian,> 100 µM
same,TGI,K-562 leukemia,> 100 µM
same,TGI,KM12 colon,> 100 µM
same,TGI,LOX IMVI melanoma,> 100 µM
same,TGI,M14 melanoma,> 100 µM
same,TGI,MALME-3M melanoma,> 100 µM
same,TGI,MCF7 breast,> 100 µM
same,TGI,MDA-MB-231 breast,> 100 µM
same,TGI,MDA-MB-435,> 100 µM
same,TGI,MDA-N,> 100 µM
same,TGI,MOLT-4 leukemia,> 100 µM
same,TGI,NCI-H226 lung,> 100 µM
same,TGI,NCI-H23 lung,> 100 µM
same,TGI,NCI-H460 lung,> 31.6 µM
same,TGI,NCI-H522 lung,> 100 µM
same,TGI,NCI/ADR-RES ovarian,> 100 µM
same,TGI,OVCAR-4 ovarian,> 100 µM
same,TGI,OVCAR-5 ovarian,> 100 µM
same,TGI,OVCAR-8 ovarian,> 100 µM
same,TGI,PC-3 prostate,> 100 µM
same,TGI,RPMI-8226 leukemia,> 100 µM
same,TGI,RXF 393 renal,> 100 µM
same,TGI,SF-268 CNS,> 100 µM
same,TGI,SF-295 CNS,> 100 µM
same,TGI,SF-539 CNS,> 100 µM
same,TGI,SK-MEL-2 melanoma,> 100 µM
same,TGI,SK-MEL-28 melanoma,> 100 µM
same,TGI,SK-MEL-5 melanoma,> 100 µM
same,TGI,SK-OV-3 ovarian,> 100 µM
same,TGI,SN12C renal,> 100 µM
same,GI50,SNB-19 CNS,> 100 µM
same,TGI,SNB-19 CNS,> 100 µM
same,TGI,SNB-75 CNS,> 100 µM
same,TGI,SR leukemia,> 100 µM
same,TGI,SW-620 colon,> 100 µM
same,TGI,T-47D breast,> 100 µM
same,GI50,TK-10 renal,> 100 µM
same,TGI,TK-10 renal,> 100 µM
same,TGI,U251 CNS,> 100 µM
same,TGI,UACC-257 melanoma,> 100 µM
same,TGI,UACC-62 melanoma,> 100 µM
same,GI50,UO-31 renal,> 100 µM
same,TGI,UO-31 renal,> 100 µM
